Measured values taken from PMC6382704, “LPM580098, a Novel Triple Reuptake Inhibitor of Serotonin, Noradrenaline, and Dopamine, Attenuates Neuropathic Pain” (Frontiers in Pharmacology, 2019).

How the values were obtained:
[1] = target: T1, NET (norepinephrine transporter) (Homo sapiens, UniProt P23975); test: radioligand displacement of [3H]nisoxetine, CHO cell membranes
T1 construct: gene SLC6A2

[2] = target: T2, SERT (serotonin transporter) (Homo sapiens, UniProt P31645); test: radioligand displacement of [3H]imipramine, CHO cell membranes
T2 construct: gene SLC6A4
T2 sequence (P31645 whole entry): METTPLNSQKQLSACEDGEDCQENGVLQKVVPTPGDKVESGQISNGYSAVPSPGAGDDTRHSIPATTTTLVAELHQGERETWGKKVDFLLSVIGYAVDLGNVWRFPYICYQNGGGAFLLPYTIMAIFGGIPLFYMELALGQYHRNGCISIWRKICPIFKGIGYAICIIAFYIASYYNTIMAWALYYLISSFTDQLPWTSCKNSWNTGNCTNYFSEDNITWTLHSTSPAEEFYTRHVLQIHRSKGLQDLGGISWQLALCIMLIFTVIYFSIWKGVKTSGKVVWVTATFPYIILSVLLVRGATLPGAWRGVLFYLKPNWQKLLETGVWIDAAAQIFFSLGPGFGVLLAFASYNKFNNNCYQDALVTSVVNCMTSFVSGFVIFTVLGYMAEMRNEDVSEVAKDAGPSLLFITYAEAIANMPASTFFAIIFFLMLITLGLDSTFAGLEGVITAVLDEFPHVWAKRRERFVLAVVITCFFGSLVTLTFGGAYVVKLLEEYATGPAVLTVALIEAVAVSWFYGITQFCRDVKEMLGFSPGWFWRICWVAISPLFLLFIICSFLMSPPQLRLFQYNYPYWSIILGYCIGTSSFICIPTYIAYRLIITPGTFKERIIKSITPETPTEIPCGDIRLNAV

[3] = target: T3, DAT (dopamine transporter) (Homo sapiens, UniProt Q01959); test: radioligand displacement of [3H]BTCP, CHO cell membranes
T3 construct: gene SLC6A3
T3 sequence (Q01959 whole entry): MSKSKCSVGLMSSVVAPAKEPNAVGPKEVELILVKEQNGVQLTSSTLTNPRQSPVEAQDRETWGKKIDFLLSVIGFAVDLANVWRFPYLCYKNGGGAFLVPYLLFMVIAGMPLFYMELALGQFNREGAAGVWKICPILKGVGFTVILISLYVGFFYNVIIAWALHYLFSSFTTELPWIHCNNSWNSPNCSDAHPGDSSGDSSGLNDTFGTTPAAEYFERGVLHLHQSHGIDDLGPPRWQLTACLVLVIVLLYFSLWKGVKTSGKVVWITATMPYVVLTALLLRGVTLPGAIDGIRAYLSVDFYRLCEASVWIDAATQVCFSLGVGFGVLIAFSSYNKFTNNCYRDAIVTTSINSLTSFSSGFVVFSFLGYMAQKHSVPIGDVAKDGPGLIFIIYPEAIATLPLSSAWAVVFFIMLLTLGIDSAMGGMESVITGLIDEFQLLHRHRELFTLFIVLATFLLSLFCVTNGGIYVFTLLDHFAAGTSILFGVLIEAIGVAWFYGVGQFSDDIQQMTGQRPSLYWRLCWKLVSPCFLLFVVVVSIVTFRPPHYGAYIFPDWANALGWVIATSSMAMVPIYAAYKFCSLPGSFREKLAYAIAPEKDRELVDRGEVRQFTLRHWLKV

T1 sequence (P23975 whole entry): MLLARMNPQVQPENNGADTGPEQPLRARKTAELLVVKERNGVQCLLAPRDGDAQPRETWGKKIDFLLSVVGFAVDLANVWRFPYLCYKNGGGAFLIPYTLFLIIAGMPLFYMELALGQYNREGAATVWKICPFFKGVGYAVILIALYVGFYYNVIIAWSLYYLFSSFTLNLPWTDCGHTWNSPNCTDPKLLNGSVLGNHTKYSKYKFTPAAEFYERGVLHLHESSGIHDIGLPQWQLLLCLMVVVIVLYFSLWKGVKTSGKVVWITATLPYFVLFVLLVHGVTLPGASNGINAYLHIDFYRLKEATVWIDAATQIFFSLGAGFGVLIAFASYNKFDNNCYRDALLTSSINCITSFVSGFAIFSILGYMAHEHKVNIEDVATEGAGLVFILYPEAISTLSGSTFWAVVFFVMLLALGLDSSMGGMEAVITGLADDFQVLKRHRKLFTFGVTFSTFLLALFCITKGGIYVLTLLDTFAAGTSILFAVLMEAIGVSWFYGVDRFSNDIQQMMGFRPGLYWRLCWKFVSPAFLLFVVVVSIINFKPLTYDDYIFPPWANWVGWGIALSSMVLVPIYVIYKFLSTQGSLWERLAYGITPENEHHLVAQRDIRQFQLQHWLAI

Which results are given for `CN(C)CC(c1ccc(Oc2ccccc2)cc1)C1(O)CCCCC1` (stereo not drawn) [LPM580098, 1-[2-(dimethylamino)-1-(4-phenoxyphenyl)ethyl] cyclohexanol]?
inhibition at 10 µM [1]: 45%; inhibition at 10 µM [2]: 90.3%; inhibition at 10 µM [3]: 77.5%
